Source: patent publication US9517244B2, “Therapeutic combinations for use in neoplasia” (University of Florida Research Foundation, Inc., priority 2011, dated 2016)
Read-outs that look alike come from different tables or passages of the source.

What was measured:
[1] = test system: HT29; test: MTT assay, MMR-proficient colon cancer cell line; assay type: cell-based
Protocol: (§1) The use of NSC-30049 as a chemopreventive agent for the treatment of colon cancer was also tested. In one experiment, NSC-30049 in combination with temozolomide was administered to colon cancer cell lines, including mismatch repair (MMR) proficient and MMR deficient cancer cell lines (Table 4). MMR proficient colon cancer cell lines tested included HCT-116+ch3, SW480, and HT29. MMR deficient cancer cell lines tested included HCT-116 and LoVo. Cells were pre-treated for 2 h with […] concentrations of NSC-30049 prior to treatment with temozolomide. After the treatment cells were allowed to grow for 72 hours. The cell growth inhibition was determined by MTT assay. Data presented are the mean±SE of three different estimations. The p value as compared to control of the Student's t-test is given in parenthesis. * p<0.05; ** p<0.01; *** p<0.001. Increasing the concentration of NSC-30049 decreased the IC50 of temozolomide for all cell lines tested, regardless of whether they were MMR proficient or deficient.
(§2) In addition to temozolomide, oxaliplatin is another chemotherapeutic agent used for the treatment of colon cancer. In another experiment, NSC-30049 in combination with oxaliplatin was administered to colon cancer cell lines, including mismatch repair (MMR) proficient and MMR deficient cancer cell lines (Table 5). MMR proficient colon cancer cell lines tested included HCT-116+ch3 and HT29. MMR deficient cancer cell lines tested included HCT-116 and LoVo. Cells were pre-treated with the indicated concentrations of NSC-33049 for 2 h followed by the treatment with different concentrations of oxaliplatin for additional 48 h. The cell growth inhibition was determined by MTT assay. Data presented are the mean±SE of three different estimations. The p value of Student's t-test as compared to the control is given in parenthesis (* p<0.05; ** p<0.01; *** p<0.001). Increasing the concentration of NSC-30049 decreased the IC50 of oxaliplatin for all cell lines tested, regardless of whether they were MMR proficient or deficient.

[2] = test system: HCT-116 + ch3; test: MTT assay, MMR-proficient colon cancer cell line; assay type: cell-based
Protocol: as §1, §2

[3] = test system: PANC1; test: MTT assay, pancreatic cancer cell line; assay type: cell-based, human; conditions: PANC1, 48 h, read-out: IC50 of Oxaliplatin
[4] = test system: BxPC3; test: MTT assay, pancreatic cancer cell line; assay type: cell-based, human; conditions: BxPC3, 48 h, read-out: IC50 of Oxaliplatin
[5] = test system: LoVo; test: MTT assay, MMR-deficient colon cancer cell line; assay type: cell-based
Protocol: as §1, §2

[6] = test system: HCT-116; test: MTT assay, MMR-deficient colon cancer cell line; assay type: cell-based
Protocol: as §1, §2

[7] = test system: human parental cancer cells; test: cell growth inhibition of parental cancer cells; assay type: cell-based; conditions: alone, 1.25 μM, 72 h
Protocol: (§3) Cells were treated with 1.25 μM of NSC-30049 and 1.25 μM of OPT either alone or in combination for 72 h. Data are mean±SD of triplicate experiments. […] Cells were treated with 1.25 μM of NSC-30049 and 1.25 μM of OPT either alone or in combination for 72 h. Fold change in gene expression values is shown as mean±SD of three experiments and are normalized to GAPDH gene expression.
(§4) The effect of administration of NSC-30049 in combination with oxaliplatin (OPT) was also examined in human parental cancer cells and colon cancer stem cells (FIG. 9A). Cells were treated with 1.25 μM of NSC-30049 and […] of OPT either alone or in combination for 72 h. Cell growth inhibition was assayed. Data presented are mean±SD of triplicate experiments.

[8] = test system: colon cancer stem cells; test: cell growth inhibition of colon cancer stem cells; assay type: cell-based, human; conditions: alone, 1.25 μM, 72 h
Protocol: as §3, §4

[9] = test system: U138; test: MTT assay, brain cancer cell line; assay type: cell-based; conditions: 120 h, read-out: IC50 of TMZ
Protocol: (§5) The use of NSC-30049 as a chemopreventive agent for the treatment of brain cancer was also tested. NSC-30049 in combination with temozolomide was administered to brain cancer cell lines, including U118, U138, U87MG, A172, and T98 cell lines (Table 6). Cells were pretreated with the indicated concentrations of NSC-30049 followed by TMZ for 120 h. After treatment, cells were processed for the determination of viability by cell proliferation assay (MTT assay). The data from the graph was used for the determination of IC50, which is presented as the mean±SE of three different estimations. Increasing the concentration of NSC-30049 decreased the IC50 of temozolomide for all cell lines tested, regardless of whether they were MMR proficient or deficient.

[10] = test system: U87MG; test: MTT assay, brain cancer cell line; assay type: cell-based; conditions: Homo sapiens, U-87 MG, 120 h, read-out: IC50 of TMZ
Protocol: as §5

[11] = test system: T98; test: MTT assay, brain cancer cell line; assay type: cell-based; conditions: Homo sapiens, T98, 120 h, read-out: IC50 of TMZ
Protocol: as §5

[12] = test system: A172; test: MTT assay, brain cancer cell line; assay type: cell-based; conditions: Homo sapiens, A 172, 120 h, read-out: IC50 of TMZ
Protocol: as §5

[13] = test system: U118; test: MTT assay, brain cancer cell line; assay type: cell-based; conditions: 120 h, read-out: IC50 of TMZ
Protocol: as §5

[14] = test system: SW480; test: MTT assay, MMR-proficient colon cancer cell line; assay type: cell-based; conditions: Homo sapiens, SW480, 72 h, read-out: IC50 of TMZ
Protocol: as §1

[15] = NSC-30049 0 μM, 48 h, read-out: IC50 of oxaliplatin
[16] = NSC-30049 1.0 μM, 48 h, read-out: IC50 of oxaliplatin
[17] = NSC-30049 2.5 μM, 48 h, read-out: IC50 of oxaliplatin
[18] = NSC-30049 5.0 μM, 48 h, read-out: IC50 of oxaliplatin
[19] = Homo sapiens, HCT-116, 72 h, NSC-30049 0 μM, 72 h, read-out: IC50 of TMZ
[20] = Homo sapiens, HCT-116, 72 h, NSC-30049 0.5 μM, 72 h, read-out: IC50 of TMZ
[21] = Homo sapiens, HCT-116, 72 h, NSC-30049 1.0 μM, 72 h, read-out: IC50 of TMZ
[22] = Homo sapiens, HCT-116, 72 h, NSC-30049 2.5 μM, 72 h, read-out: IC50 of TMZ

O=C1[O][Pt]2([NH][C@@H]3CCCC[C@H]3[NH]2)[O]C1=O [Oxaliplatin, oxaliplatin]
IC50 [1, 15]: 0.92 ± 0.03 µM
IC50 [1, 16]: 0.82 ± 0.06 µM
IC50 [1, 17]: 0.59 ± 0.02 µM
IC50 [1, 18]: 0.03 µM
IC50 [2, 15]: 5.83 ± 0.36 µM
IC50 [2, 16]: 4.98 ± 0.17 µM
IC50 [2, 17]: 0.91 ± 0.12 µM
IC50 [2, 18]: 0.03 µM
IC50 ([3]; NSC-30049 0 μM): 14.5 ± 0.38 µM
IC50 ([3]; NSC-30049 0.5 μM): 0.38 ± 0.06 µM
IC50 ([3]; NSC-30049 1.0 μM): 0.13 ± 0.04 µM
IC50 ([3]; NSC-30049 2.5 μM): 0.37 ± 0.22 µM
IC50 ([4]; NSC-30049 0 μM): 2 ± 0.4 µM
IC50 ([4]; NSC-30049 0.5 μM): 0.71 ± 0.39 µM
IC50 ([4]; NSC-30049 1.0 μM): 0.33 ± 0.06 µM
IC50 ([4]; NSC-30049 2.5 μM): 0.01 µM
IC50 [5, 15]: 0.75 ± 0.02 µM
IC50 ([5]; NSC-30049 0.5 μM, 48 h, read-out: IC50 of oxaliplatin): 0.59 ± 0.04 µM
IC50 [5, 16]: 0.07 ± 0.02 µM
IC50 [5, 17]: 0.03 µM
IC50 [6, 15]: 1.5 ± 0.01 µM
IC50 [6, 16]: 0.78 ± 0.02 µM
IC50 [6, 17]: 0.03 µM
IC50 [6, 18]: 0.02 µM
inhibition of growth [7]: ~65%
inhibition of growth [8]: ~40%

Cn1nnc2c(C(N)=O)ncn2c1=O [TMZ, Temozolomide]
IC50 ([1]; Homo sapiens, HT-29, 72 h, NSC-30049 0 μM, 72 h, read-out: IC50 of TMZ): 1450 ± 144 µM
IC50 ([1]; Homo sapiens, HT-29, 72 h, NSC-30049 0.5 μM, 72 h, read-out: IC50 of TMZ): 1270 ± 60 µM
IC50 ([1]; Homo sapiens, HT-29, 72 h, NSC-30049 1.0 μM, 72 h, read-out: IC50 of TMZ): 815 ± 93 µM
IC50 ([1]; Homo sapiens, HT-29, 72 h, NSC-30049 2.5 μM, 72 h, read-out: IC50 of TMZ): 248 ± 59 µM
IC50 ([1]; Homo sapiens, HT-29, 72 h, NSC-30049 5.0 μM, 72 h, read-out: IC50 of TMZ): 5.33 ± 0.07 µM
IC50 [2, 19]: 236 ± 23 µM
IC50 [2, 20]: 206 ± 13 µM
IC50 [2, 21]: 153 ± 10 µM
IC50 [2, 22]: 0.73 ± 0.04 µM
IC50 ([2]; Homo sapiens, HCT-116, 72 h, NSC-30049 5.0 μM, 72 h, read-out: IC50 of TMZ): 0.35 ± 0.01 µM
IC50 ([9]; NSC-30049 0 μM): 432 ± 19.1 µM
IC50 ([9]; NSC-30049 1.0 μM): 278 ± 14.6 µM
IC50 ([9]; NSC-30049 2.5 μM): 3.8 ± 0.4 µM
IC50 ([9]; NSC-30049 5.0 μM): 0.8 ± 0.02 µM
IC50 ([10]; NSC-30049 0 μM): 493 ± 83.9 µM
IC50 ([10]; NSC-30049 1.0 μM): 33 ± 5.1 µM
IC50 ([10]; NSC-30049 2.5 μM): 19.9 ± 10.5 µM
IC50 ([10]; NSC-30049 5.0 μM): 13.7 ± 8.5 µM
IC50 ([11]; NSC-30049 0 μM): 554 ± 53.9 µM
IC50 ([11]; NSC-30049 1.0 μM): 511 ± 14.7 µM
IC50 ([11]; NSC-30049 2.5 μM): 382 ± 5.9 µM
IC50 ([11]; NSC-30049 5.0 μM): 245 ± 8.7 µM
IC50 ([12]; NSC-30049 0 μM): 154 ± 6.8 µM
IC50 ([12]; NSC-30049 1.0 μM): 89.5 ± 7.8 µM
IC50 ([12]; NSC-30049 2.5 μM): 82.9 ± 5.1 µM
IC50 ([12]; NSC-30049 5.0 μM): 75.1 ± 5.2 µM
IC50 ([13]; NSC-30049 0 μM): 136 ± 3.7 µM
IC50 ([13]; NSC-30049 1.0 μM): 78.4 ± 1.3 µM
IC50 ([13]; NSC-30049 2.5 μM): 14.5 ± 2.5 µM
IC50 ([13]; NSC-30049 5.0 μM): 1.1 ± 3 µM
IC50 ([5]; Homo sapiens, 72 h, NSC-30049 0 μM, 72 h, read-out: IC50 of TMZ): 1106 ± 0.02 µM
IC50 ([5]; Homo sapiens, 72 h, NSC-30049 0.5 μM, 72 h, read-out: IC50 of TMZ): 366 ± 6 µM
IC50 ([5]; Homo sapiens, 72 h, NSC-30049 1.0 μM, 72 h, read-out: IC50 of TMZ): 8 ± 0.8 µM
IC50 ([5]; Homo sapiens, 72 h, NSC-30049 2.5 μM, 72 h, read-out: IC50 of TMZ): 3.82 ± 0.09 µM
IC50 [6, 19]: 620 ± 11 µM
IC50 [6, 20]: 361 ± 10 µM
IC50 [6, 21]: 160 ± 63 µM
IC50 [6, 22]: 3.81 ± 0.11 µM
IC50 ([14]; NSC-30049 0 μM): 377 ± 12 µM
IC50 ([14]; NSC-30049 0.5 μM): 325 ± 18 µM
IC50 ([14]; NSC-30049 1.0 μM): 167 ± 49 µM
IC50 ([14]; NSC-30049 2.5 μM): 0.47 ± 0.03 µM
